Assays:
[1] = xn = mol fraction of the nth substance listed; settings: 298.15 K, 100 kPa, Liquid; for speed of sound: Frequency=3 MHz, Single path-length method; for mass density: Vibrating tube method
[2] = excess molar enthalpy (molar enthalpy of mixing); xn = mol fraction of the nth substance listed; settings: 298.15 K, 100 kPa, Liquid, Power-compensation calorimetry
[3] = 298.15 K, 100 kPa, Liquid; for speed of sound: Frequency=3 MHz, Single path-length method; for mass density: Vibrating tube method

CCOC(=O)C(C)O (stereo not drawn) [DL-ethyl lactate] + CCCCO
Settings | excess molar enthalpy, [2] [kcal/mol] | mass density, [1] [kg/m3] | speed of sound, [1] [m/s]
x1 = 0.048 | 0.0471 | – | –
x1 = 0.0502 | – | 819.65 | 1241.3
x1 = 0.0914 | – | 830.65 | 1242.1
x1 = 0.103 | 0.0841 | – | –
x1 = 0.1929 | – | 856.89 | 1244.7
x1 = 0.233 | 0.136 | – | –
x1 = 0.3041 | – | 884.31 | 1248.3
x1 = 0.314 | 0.149 | – | –
x1 = 0.4061 | – | 908.31 | 1252.3
x1 = 0.414 | 0.154 | – | –
x1 = 0.4991 | – | 929.27 | 1256
x1 = 0.527 | 0.146 | – | –
x1 = 0.6037 | – | 951.84 | 1260.8
x1 = 0.626 | 0.127 | – | –
x1 = 0.707 | – | 973.11 | 1265.9
x1 = 0.714 | 0.0992 | – | –
x1 = 0.7968 | – | 990.82 | 1270.1
x1 = 0.82 | 0.0588 | – | –
x1 = 0.8927 | – | 1008.98 | 1274.6
x1 = 0.91 | 0.0299 | – | –
x1 = 0.951 | 0.0129 | – | –
x1 = 0.9527 | – | 1019.97 | 1277.3
x1 = 1 | – | 1028.45 | 1279.3

COC(=O)C(C)O (configuration not stated) [methyl 2-hydroxypropanoate]
[3]
Settings | mass density [kg/m3] | speed of sound [m/s]
– | 1087.35 | 1339.3

CCOC(=O)C(C)O (racemic) [DL-ethyl lactate]
[3]
Settings | mass density [kg/m3] | speed of sound [m/s]
– | 1028.45 | 1279.3

COC(=O)C(C)O (configuration not stated) [methyl 2-hydroxypropanoate] + CCO
Settings | excess molar enthalpy, [2] [kcal/mol] | mass density, [1] [kg/m3] | speed of sound, [1] [m/s]
x1 = 0.0492 | – | 809.35 | 1158
x1 = 0.056 | 0.0277 | – | –
x1 = 0.0968 | – | 831.45 | 1172.3
x1 = 0.104 | 0.0497 | – | –
x1 = 0.185 | 0.0801 | – | –
x1 = 0.2099 | – | 879.28 | 1203.7
x1 = 0.225 | 0.0932 | – | –
x1 = 0.281 | 0.105 | – | –
x1 = 0.3161 | – | 918.72 | 1229.4
x1 = 0.3921 | – | 944.17 | 1245.2
x1 = 0.464 | 0.11 | – | –
x1 = 0.4987 | – | 976.29 | 1266.1
x1 = 0.543 | 0.102 | – | –
x1 = 0.5872 | – | 1000.2 | 1283.3
x1 = 0.666 | 0.0825 | – | –
x1 = 0.6963 | – | 1026.72 | 1300.8
x1 = 0.794 | 0.0569 | – | –
x1 = 0.8007 | – | 1049.53 | 1316.4
x1 = 0.8814 | – | 1065.65 | 1326.5
x1 = 0.903 | 0.0282 | – | –
x1 = 0.952 | 0.0151 | – | –
x1 = 0.9535 | – | 1079.11 | 1334.4
x1 = 1 | – | 1087.35 | 1339.3

COC(=O)C(C)O (configuration not stated) [methyl 2-hydroxypropanoate] + CO
Settings | excess molar enthalpy, [2] [kcal/mol] | mass density, [1] [kg/m3] | speed of sound, [1] [m/s]
x1 = 0.0565 | – | 826.67 | 1134.5
x1 = 0.0945 | – | 850.35 | 1152.9
x1 = 0.104 | 0.0038 | – | –
x1 = 0.151 | 0.00392 | – | –
x1 = 0.1933 | – | 902.12 | 1196.4
x1 = 0.262 | 0.00117 | – | –
x1 = 0.287 | 0.000215 | – | –
x1 = 0.3029 | – | 947.03 | 1234.1
x1 = 0.316 | -0.000956 | – | –
x1 = 0.3844 | – | 974.04 | 1254.7
x1 = 0.399 | -0.00413 | – | –
x1 = 0.482 | -0.00719 | – | –
x1 = 0.5099 | – | 1008.1 | 1282.4
x1 = 0.595 | -0.00903 | – | –
x1 = 0.6105 | – | 1029.88 | 1301.4
x1 = 0.687 | -0.00937 | – | –
x1 = 0.7215 | – | 1049.84 | 1318.2
x1 = 0.798 | -0.00686 | – | –
x1 = 0.8206 | – | 1064.82 | 1329.8
x1 = 0.879 | -0.0044 | – | –
x1 = 0.9225 | – | 1078.13 | 1337.1
x1 = 0.945 | -0.00194 | – | –
x1 = 0.9601 | – | 1082.7 | 1338.8
x1 = 1 | – | 1087.35 | 1339.3

CCO [ethanol] + COC(=O)C(C)O
[1], x2 = 0
Settings | mass density [kg/m3] | speed of sound [m/s]
– | 785.16 | 1143.2

CCCCO [butan-1-ol] + COC(=O)C(C)O
[1], x2 = 0
Settings | mass density [kg/m3] | speed of sound [m/s]
– | 805.95 | 1240.4

CO [methanol]
[3]
Settings | mass density [kg/m3] | speed of sound [m/s]
– | 786.53 | 1104

CCCCO [butan-1-ol]
[3]
Settings | mass density [kg/m3] | speed of sound [m/s]
– | 805.95 | 1240.4

CCOC(=O)C(C)O (stereo not drawn) [DL-ethyl lactate] + CO
Settings | excess molar enthalpy, [2] [kcal/mol] | mass density, [1] [kg/m3] | speed of sound, [1] [m/s]
x1 = 0.0432 | – | 816.63 | 1125.5
x1 = 0.051 | -0.0088 | – | –
x1 = 0.0935 | – | 846.09 | 1149.1
x1 = 0.104 | -0.0166 | – | –
x1 = 0.1911 | – | 890.78 | 1187
x1 = 0.209 | -0.0299 | – | –
x1 = 0.2979 | – | 926.51 | 1215.4
x1 = 0.327 | -0.0361 | – | –
x1 = 0.3976 | – | 951.94 | 1234.5
x1 = 0.437 | -0.0378 | – | –
x1 = 0.5018 | – | 972.85 | 1250.5
x1 = 0.569 | -0.0356 | – | –
x1 = 0.5789 | – | 985.46 | 1259
x1 = 0.621 | -0.0313 | – | –
x1 = 0.695 | – | 1000.96 | 1270.3
x1 = 0.763 | -0.0199 | – | –
x1 = 0.8045 | – | 1012.66 | 1275.9
x1 = 0.83 | -0.0134 | – | –
x1 = 0.9018 | – | 1021.2 | 1278.2
x1 = 0.905 | -0.00672 | – | –
x1 = 0.958 | -0.00263 | – | –
x1 = 0.9622 | – | 1025.79 | 1279
x1 = 1 | – | 1028.45 | 1279.3

CCO [ethanol] + CCOC(=O)C(C)O
[1], x2 = 0
Settings | mass density [kg/m3] | speed of sound [m/s]
– | 785.16 | 1143.2

CCCO [propan-1-ol]
[3]
Settings | mass density [kg/m3] | speed of sound [m/s]
– | 799.66 | 1206

Source: the NIST ThermoML archive (doi:10.1016/j.jct.2018.07.013)
